Laboratory results published in the supplement of paper PMC10307832.

Key:
Assay in all cases: relative viability (nuclei count vs DMSO), 5 days (fraction); higher = more cells survive
[1] = compound: CC(C)(C)c1nc(-c2cccc(NS(=O)(=O)c3c(F)cccc3F)c2F)c(-c2ccnc(N)n2)s1 [Dabrafenib] + CC(C)C[C@H](NC(=O)[C@H](Cc1ccccc1)NC(=O)c1cnccn1)B(O)O [Bortezomib] (partner 0.002 µM)
Summary of the method: (§1)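 Medians of duplicate plates are given as relative viability. That measure is the nuclei count in treated wells divided by the count in vehicle wells. Counts were taken on 4× images of lung cancer cell lines in 1536-well plates, 5 days after pin-tool dosing the day after seeding with one drug alone or a fixed anchor-drug dose plus five library-drug doses (not always all listed) in √10 steps.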

[2] = compound: CC(C)(C)c1nc(-c2cccc(NS(=O)(=O)c3c(F)cccc3F)c2F)c(-c2ccnc(N)n2)s1 [Dabrafenib] + CS(=O)(=O)CCNCc1ccc(-c2ccc3ncnc(Nc4ccc(OCc5cccc(F)c5)c(Cl)c4)c3c2)o1 [Lapatinib] (partner 2 µM)
Summary of the method: as §1

[3] = compound: CC(C)(C)c1nc(-c2cccc(NS(=O)(=O)c3c(F)cccc3F)c2F)c(-c2ccnc(N)n2)s1 [Dabrafenib] + Cc1cc(Nc2cc(N3CCN(C)CC3)nc(Sc3ccc(NC(=O)C4CC4)cc3)n2)n[nH]1 [Tozasertib] (partner 0.1 µM)
Summary of the method: as §1

[4] = compound: CC(C)(C)c1nc(-c2cccc(NS(=O)(=O)c3c(F)cccc3F)c2F)c(-c2ccnc(N)n2)s1 [Dabrafenib] + O=C(c1cc(Cc2n[nH]c(=O)c3ccccc23)ccc1F)N1CCN(C(=O)C2CC2)CC1 [Olaparib] (partner 8 µM)
Summary of the method: as §1

Cell Line | relative viability ([1]; first compound 0.003 µM) | relative viability ([1]; first compound 0.009487 µM) | relative viability ([1]; first compound 0.03 µM) | relative viability ([1]; first compound 0.09487 µM) | relative viability ([1]; first compound 0.3 µM) | relative viability ([2]; first compound 0.003 µM) | relative viability ([2]; first compound 0.009487 µM) | relative viability ([2]; first compound 0.03 µM) | relative viability ([2]; first compound 0.09487 µM) | relative viability ([2]; first compound 0.3 µM) | relative viability ([3]; first compound 0.003 µM) | relative viability ([3]; first compound 0.009487 µM) | relative viability ([3]; first compound 0.03 µM) | relative viability ([3]; first compound 0.09487 µM) | relative viability ([3]; first compound 0.3 µM) | relative viability ([4]; first compound 0.003 µM) | relative viability ([4]; first compound 0.009487 µM) | relative viability ([4]; first compound 0.03 µM) | relative viability ([4]; first compound 0.09487 µM) | relative viability ([4]; first compound 0.3 µM)
HCC-15 | 1.06 | 0.971 | 0.997 | 0.891 | 0.814 | 0.788 | 0.809 | 0.891 | 0.739 | 0.732 | 0.602 | 0.506 | 0.355 | 0.398 | 0.386 | 0.716 | 0.673 | 0.743 | 0.578 | 0.63
HCC-44 | 0.884 | 0.854 | 0.935 | 0.853 | 0.964 | 0.996 | 0.982 | 1.11 | 0.86 | 0.964 | 0.959 | 0.974 | 0.976 | 0.836 | 0.989 | 0.952 | 1.03 | 1.08 | 1 | 0.956
IA-LM | 0.84 | 0.646 | 0.492 | 0.471 | 0.222 | 0.774 | 0.7 | 0.835 | 0.689 | 0.464 |  |  |  |  |  | 0.873 | 0.743 | 0.831 | 0.687 | 0.554
LCLC-103H | 1.06 | 1.14 | 0.995 | 1.09 | 1.01 |  |  |  |  |  | 0.401 | 0.514 | 0.424 | 0.44 | 0.5 | 0.716 | 0.733 | 0.687 | 0.801 | 0.747
LK-2 |  |  |  |  |  | 0.885 | 1.02 |  | 0.902 | 0.985 | 0.182 | 0.174 |  | 0.174 | 0.152 | 0.737 | 0.706 |  | 0.498 | 0.796
NCI-H358 |  |  |  |  |  |  | 0.53 | 0.369 | 0.446 | 0.465 | 0.102 | 0.0949 | 0.0962 | 0.106 | 0.0813 | 0.647 | 0.697 | 0.546 | 0.538 | 0.406
NCI-H441 |  | 0.453 | 0.393 | 0.323 | 0.35 |  |  |  |  |  |  | 0.555 | 0.632 | 0.571 | 0.495 |  | 0.609 | 0.609 | 0.334 | 0.588
NCI-H522 |  |  |  |  |  |  |  |  |  |  |  | 0.471 | 0.59 | 0.58 | 0.621 |  | 0.788 | 0.59 | 0.642 | 0.633
NCI-H1299 | 0.962 | 0.97 | 1 | 0.993 | 1 | 1.01 | 0.952 | 0.957 | 0.932 | 0.824 |  |  |  |  |  | 0.932 | 0.886 | 0.902 | 0.884 | 0.794
